Data as given in patent US10588317B2, “Isoxazoline-substituted benzamides and analogues as insecticides” (priority 2015, dated 2020).

What was measured:
Format in all cases: in vivo
Euschistus heros = Euschistus heros (neotropical brown stink bug), sprayed soybean leaves; settings: 120 h, application rate 200 ppm, N2 nymphs, 5 days after infestation, read-out: effect in at least one of the two categories (mortality or growth inhibition)
Summary of the method: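 Scored 5 days post-infestation versus untreated controls, for both mortality and growth inhibition: N2 nymphs placed on agar-mounted soybean leaves previously sprayed at 200 ppm with aqueous test solutions from DMSO stocks and left to dry.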

Plutella xylostella = Plutella xylostella (diamond back moth), artificial diet; settings: 120 h, application rate 200 ppm, L2 larvae, 5 days after infestation, read-out: effect in at least one of the two categories (mortality or growth inhibition)
Summary of the method: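 L2 larvae (10-15 per well) fed on compound-treated, dried artificial diet; test solutions diluted in water from 10'000 ppm DMSO stocks. Readout 5 days post-infestation as mortality or growth inhibition versus untreated diet, with at least 80% effect at 200 ppm as threshold.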

Spodoptera littoralis [1] = test: Spodoptera littoralis (Egyptian cotton leaf worm), uptake by lettuce roots from agar; settings: 144 h, read-out: effect in at least one of the three categories (mortality, anti-feeding, or growth inhibition)
Summary of the method: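 Systemic test: Spodoptera eggs placed on lettuce leaves from seedlings raised 7 days on agar containing the compound (diluted from 10'000 ppm DMSO stock). Six days after infestation, larvae scored against untreated controls for mortality, feeding deterrence and growth inhibition.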

Diabrotica balteata = Diabrotica balteata (corn root worm), sprayed maize sprouts; settings: 96 h, application rate 200 ppm, L2 larvae, 4 days after infestation, read-out: effect in at least one of the two categories (mortality or growth inhibition)
Summary of the method: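 Read-out at 4 days post-infestation: mortality and growth inhibition relative to untreated samples. Test solutions (200 ppm, from DMSO stocks) were sprayed onto agar-held maize sprouts, which after drying received 6–10 L2 larvae per well.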

Tetranychus urticae = Tetranychus urticae (two-spotted spider mite): feeding/contact activity; settings: 192 h, application rate 200 ppm, mixed population (mobile stages), 8 days after infestation, read-out: mortality
Description: Bean leaf discs on agar in 24-well microtiter plates were sprayed with aqueous test solutions prepared from 10'000 ppm DMSO stock solutions. After drying the leaf discs were infested with a mite population of mixed ages. The samples were assessed for mortality on mixed population (mobile stages) 8 days after infestation.

Thrips tabaci = Thrips tabaci (onion thrips): feeding/contact activity; settings: 144 h, application rate 200 ppm, Thrips population of mixed ages, 6 days after infestation, read-out: mortality
Description: Sunflower leaf discs were placed on agar in 24-well microtiter plates and sprayed with aqueous test solutions prepared from 10'000 ppm DMSO stock solutions. After drying the leaf discs were infested with a Thrips population of mixed ages. The samples were assessed for mortality 6 days after infestation.

Spodoptera littoralis [2] = test: Spodoptera littoralis (Egyptian cotton leaf worm), sprayed cotton leaf discs; settings: foliar, 72 h, application rate 200 ppm, L1 larvae, 3 days after infestation, read-out: control (mortality, anti-feeding effect, growth inhibition)
Summary of the method: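 Five first-instar larvae placed on dried cotton leaf discs (on agar) previously sprayed with aqueous dilutions of 10'000 ppm DMSO stocks. Scored at 3 days against untreated discs for mortality, feeding inhibition and growth inhibition; any category above untreated counts as control.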

Myzus persicae = Myzus persicae (green peach aphid): feeding/contact activity; settings: 144 h, application rate 200 ppm, aphid population of mixed ages, 6 days after infestation, read-out: mortality
Description: Sunflower leaf discs were placed onto agar in a 24-well microtiter plate and sprayed with aqueous test solutions prepared from 10'000 ppm DMSO stock solutions. After drying, the leaf discs were infested with an aphid population of mixed ages. The samples were assessed for mortality 6 days after infestation.

CNS(=O)(=O)N1C[C@@H](NC(=O)c2ccc(C3=NO[C@@](c4cc(Cl)cc(C(F)(F)F)c4)(C(F)(F)F)C3)cc2C)CO1 [Compound A138]
≥ 80%: percent effect (mortality or growth inhibition) at 200 ppm (Euschistus heros) | percent effect (mortality or growth inhibition) at 200 ppm (Plutella xylostella) | percent control (mortality, anti-feedant effect or growth inhibition) at 12.5 ppm (Spodoptera littoralis [1]) | percent effect (mortality or growth inhibition) at 200 ppm (Diabrotica balteata) | mortality at 200 ppm (Tetranychus urticae) | mortality at 200 ppm (Thrips tabaci) | mortality at 200 ppm (Spodoptera littoralis [2]) | mortality at 200 ppm (Myzus persicae)

CN(C)S(=O)(=O)N1C[C@@H](NC(=O)c2ccc(C3=NO[C@@](c4cc(Cl)c(Cl)c(Cl)c4)(C(F)(F)F)C3)cc2Cl)CO1 [Compound A109, 2-chloro-N-[(4R)-2-(dimethylsulfamoyl)isoxazolidin-4-yl]-4-[(5S)-5-(3,4,5-trichlorophenyl)-5-(trifluoromethyl)-4H-isoxazol-3-yl]benzamide]
≥ 80%: percent effect (mortality or growth inhibition) at 200 ppm (Euschistus heros) | percent effect (mortality or growth inhibition) at 200 ppm (Plutella xylostella) | percent control (mortality, anti-feedant effect or growth inhibition) at 12.5 ppm (Spodoptera littoralis [1]) | percent effect (mortality or growth inhibition) at 200 ppm (Diabrotica balteata) | mortality at 200 ppm (Tetranychus urticae) | mortality at 200 ppm (Thrips tabaci) | mortality at 200 ppm (Spodoptera littoralis [2]) | mortality at 200 ppm (Myzus persicae)

CNS(=O)(=O)N1C[C@@H](NC(=O)c2ccc(C3=NO[C@@](c4cc(Cl)c(Cl)c(Cl)c4)(C(F)(F)F)C3)cc2Cl)CO1 [Compound A126, 2-chloro-N-[(4R)-2-(methylsulfamoyl)isoxazolidin-4-yl]-4-[(5S)-5-(3,4,5-trichlorophenyl)-5-(trifluoromethyl)-4H-isoxazol-3-yl]benzamide]
≥ 80%: percent effect (mortality or growth inhibition) at 200 ppm (Euschistus heros) | percent effect (mortality or growth inhibition) at 200 ppm (Plutella xylostella) | percent control (mortality, anti-feedant effect or growth inhibition) at 12.5 ppm (Spodoptera littoralis [1]) | percent effect (mortality or growth inhibition) at 200 ppm (Diabrotica balteata) | mortality at 200 ppm (Tetranychus urticae) | mortality at 200 ppm (Thrips tabaci) | mortality at 200 ppm (Spodoptera littoralis [2]) | mortality at 200 ppm (Myzus persicae)

Cc1cc(C2=NO[C@@](c3cc(Cl)c(F)c(Cl)c3)(C(F)(F)F)C2)ccc1C(=O)NC1CON(S(=O)(=O)N(C)C(=O)c2cccnc2)C1 (some centres unmarked) [Compound A78]
≥ 80%: percent effect (mortality or growth inhibition) at 200 ppm (Euschistus heros) | percent effect (mortality or growth inhibition) at 200 ppm (Plutella xylostella) | percent effect (mortality, anti-feeding or growth inhibition) at 12.5 ppm (Spodoptera littoralis [1]; test rate 12.5 ppm, eggs, 6 days after infestation) | percent effect (mortality or growth inhibition) at 200 ppm (Diabrotica balteata) | mortality at 200 ppm (Tetranychus urticae) | mortality at 200 ppm (Thrips tabaci) | mortality at 200 ppm (Spodoptera littoralis [2]) | mortality at 200 ppm (Myzus persicae)
